Test results reported in patent US10525159B2, “Liquid preparation for contact lenses comprising hydrolyzed hyaluronic acid derivative and cationic bactericide” (OPHTECS CORPORATION, priority 2016, dated 2020).

Columns and labels:
[1] = Hydrophilicity of SCL by dynamic contact angle measurement (etafilcon A); assay type: physicochemical
Experimental: (§1) SCL having etafilcon A, senofilcon A or balafilcon A as a material was taken out from a blister pack. Moisture on SCL to be measured was wiped off twice with a paper waste cloth, and dien the contact angle was measured using a dynamic contact angle measuring apparatus (automatic contact angle meter DSA100 S manufactured by Krass Company). SCL was set on a sample stage of the dynamic contact angle measuring apparatus in such a manner that die concave surface of the SCL faced upward, and 2 μL of PBS was dropped After dropping, droplets were photographed with a camera after about 10 seconds, and the contact angle between the SCL surface and the droplet was calculated by analysis software.
Next, each SCL was immersed in a PBS solution containing 50 ppm of the hydrolyzed hyaluronic acid derivative. As a control test, each SCL was immersed in PBS. The SCLs were immersed in the respective solutions overnight, and then subjected to cycle treatment under the condition of immersion of the SCL in PBS for 8 hours in conformity to actual wear. The cycle treatment was repeated, and fir SCL 1 day after immersion and 13 days after immersion, the contact angle was calculated in die same manner as described above.
(§2) Further, each SCL was immersed in a PBS solution containing 50 ppm of Na hyaluronate instead of die hydrolyzed hyaluronic add derivative, and die contact angle was calculated in die same manner as in the case of the hydrolyzed hyaluronic acid derivative.

[2] = tested on: both eyes of 15 subjects; assay: Suppression of corneal staining: SPK (superficial punctate keratitis) score in subjects; assay type: in vivo; conditions: 50 ppm in solution A; 15 subjects (30 eyes); conclusion from the SPK score
[3] = Hydrophilicity of SCL by dynamic contact angle measurement (balafilcon A); assay type: physicochemical; conditions: FIG. 7
Experimental: as §1
(§3) Next, each SCL was immersed in a PBS solution containing 50 ppm of the hydrolyzed hyaluronic acid derivative. As a control test, each SCL was immersed in PBS. […] The cycle treatment was repeated, and fir SCL 1 day after immersion and 13 days after immersion, the contact angle was calculated in die same manner as described above.
as §2

[4] = Hydrophilicity of SCL by dynamic contact angle measurement (senofilcon A); assay type: physicochemical; conditions: FIG. 9
Experimental: as §1, §3, §2

[5] = PBS containing 50 ppm, risk ratio of less than 5%

## hydrolyzed alkyl (C12-13) glyceryl hyaluronate [hydrolyzed hyaluronic acid derivative]
[1]; etafilcon A SCL, PBS containing 50 ppm, Mann-Whitney U test, FIG. 5
  contact angle as compared to SCL immersed in PBS, or PBS containing 50 ppm of Na hyaluronate: significantly smaller
[1]; etafilcon A SCL, PBS containing 50 ppm, risk ratio of less than 5%, FIG. 5
  contact angle of SCL immersed for 13 days compared with 1 day: significantly smaller
[1]; summary for all of the three kinds of SCL (etafilcon A, balafilcon A, senofilcon A)
  contact angle as compared to Na hyaluronate: smaller contact angle
[2]
  effect on occurrence of corneal staining: effect of suppressing occurrence of corneal staining
[3]; Mann-Whitney U test
  contact angle as compared to SCL immersed in PBS, or PBS containing 50 ppm of Na hyaluronate: significantly smaller
[3]; [5]
  contact angle of SCL immersed for 13 days compared with 1 day: significantly smaller
[4]; Mann-Whitney U test
  contact angle as compared to SCL immersed in PBS, or PBS containing 50 ppm of Na hyaluronate: significantly smaller
[4]; [5]
  contact angle of SCL immersed for 13 days compared with 1 day: significantly smaller
